Results on 1 molecule are retold here after US20090274676A1, “COMBINATION OF DEHYDROEPIANDROSTERONE OR DEHYDROEPIANDROSTERONE-SULFATE WITH A PDE-4 INHIBITOR FOR TREATMENT OF ASTHMA OR CHRONIC OBSTRUCTIVE PULMONARY DISEASE” (priority 2003, published 2009).

Where “and” joins values, the source holds several entries; their conditions need not be identical. Equal entries are not always repeated. Marks after values point to notes of the source that are not given here.

Series [1] in a line: Respirable dose studies, Andersen cascade impactor. The note with it: 90 L/min. It counts as physicochemical. The method, then:
The respirable dose (respirable fraction) studies were performed using a standard sampler cascade impactor (Andersen), consisting of an inlet cone (an impactor pre-separator was substituted here), 9 stages, 8 collection plates, and a backup filter within 8 aluminum stages held together by 3 spring clamps and gasket O-ring seals, where each impactor stage contains multiple precision drilled orifices. When air is drawn through the sampler, multiple jets of air in each stage direct any airborne particles toward the surface of the collection plate for that stage. The size of the jets is constant for each stage, but is smaller in each succeeding stage. Whether a particle is impacted on any given stage depends upon its aerodynamic diameter. The range of particle sizes collected on each stage depends upon on the jet velocity of the stage, and the cut-off point of the previous stage. Any particle not collected on the first stage follows the air stream around the edge of the plate to the next stage, where it is either impacted or passed on to the succeeding stage, and so on, until the velocity of the jet is sufficient for impaction. To prevent particle bounce during the cascade impactor test, the individual impactor plates were coated with a hexane-grease (high vacuum) solution (100:1 ratio). As noted above, the particle size cut-off points on the impactor plates changed at different airflow rates. […] The set-up recommended by the United States Pharmacopeia for testing dry powder inhalers consists of a mouthpiece adapter (silicone in this case) attached to a glass throat (modified 50 ml round-bottom flask) and a glass distal pharynx (induction port) leading top the pre-separator and Andersen sampler. The pre-separator sample includes washings from the mouthpiece adaptor, glass throat, distal glass pharynx and pre-separator. 5 ml acetonitrile:water (1:1 ratio) solvent was placed in the pre-separator before performing the cascade impactor experiment, that were performed in duplicate with 3 different dry powder inhaler devices and at 3 airflow rates, 30, 60 and 90 L/min. The drug collected on the cascade impactor plates were assayed by the HPLC, and a drug mass balance was performed for each Diskhaler and multi-dose cascade impactor experiment consisting of determining the amount of drug left in the blister, the amount of drug remaining in the device (Diskhaler only), the non-respirable amount of the dose retained on the silicone rubber mouth piece adaptor, glass throat, glass distal pharynx and pre-separator, all combined into one sample, and the respirable dose, i.e. Stage 2 through filter impactor plates for airflow rates of 30 and 60 L/min and Stages 1 through filter impactor plates for 90 L/min experiments.
The cascade impactor experiments were conducted as described in Example 3. Four cascade impactor experiments were done, three with a IDL multi-dose device and one with a Diskhaler, all at 90 L/min. […] However, the % respirable dose was still low. This was likely the result of moisture absorption of the anhydrous form.

A short description of series [2]: Aerosolization of neat DHEA-S dihydrate, Acu-Breathe single-dose inhaler, fine particle fraction. It counts as physicochemical. The note with it: 30 L/min, IDL data. An excerpt: The single-dose Acu-Breathe device is used for evaluating DHEA-S.dihydrate. […] These blisters are actuated into the Andersen 8-stage cascade impactor at flow rates ranging from 30 to 75 L/min with a glass twin-impinger throat. Stages 1-5 of the Andersen impactor are rinsed together to obtain an estimate of the fine particle fraction. Pooling the drug collected from multiple stages into one assay make the method much more sensitive. […] Using a carrier with a larger particle size typically improves the aerosol properties of micronized drug substances.

[3] abbreviates: Multi-dose, oven dried drug for 80 minutes.
The mark [4] stands for this setting: Multi-dose, oven dried drug for 20 hours.

`C[C@]12CC[C@H](OS(=O)(=O)[O-])CC1=CC[C@@H]1[C@@H]2CC[C@]2(C)C(=O)CC[C@@H]12.[Na+]` [Anhydrous DHEA-S]: the “Respirable dose of spray-dried compared to micronized anhydrous DHEA-S” value in series [1] is given as “two-fold increase”. For the same molecule, the “Blister (%)” value is 2.8% in series [1] (setting [3]); 5.0% in series [1] (setting [4]); 6.6% and 10.1% in series [1] (jet-milled drug, Diskhaler); 3.8% and 3.9% in series [1] (jet-milled drug, Multi-dose). Besides, the “Preseparator (%)” value in series [1] (setting [3]) was 78.7%; in series [1] (setting [4]), 55.9%; in series [1] (jet-milled drug, Diskhaler) it was 72.7% and 60.2%; in series [1] (jet-milled drug, Multi-dose), 73.3% and 65.8%; in series [1] (spray-dried drug, Diskhaler), 56.8%. The “Respirable Dose (%)” value in series [1] (setting [3]) was 4.6%; in series [1] (setting [4]), 1.2%; in series [1] (jet-milled drug, Diskhaler), 2.9% and 2.4%; in series [1] (jet-milled drug, Multi-dose) it was 3.6% and 3.8%; in series [1] (spray-dried drug, Diskhaler) it was 5.6%. Moreover, the “Device (%)” value was 13.9*^a % in series [1] (Multi-dose, oven dried drug for 80 minutes, obtained by difference); 37.9*^a % in series [1] (Multi-dose, oven dried drug for 20 hours, obtained by difference); 22.1% and 13.3% in series [1] (jet-milled drug, Diskhaler); 19.3*^a % and 26.5*^a % in series [1] (jet-milled drug, Multi-dose, obtained by difference); 11.2% in series [1] (spray-dried drug, Diskhaler). Further, the “Blisters (%)” value in series [1] (spray-dried drug, Diskhaler) is reported as 29.0%. Also, in series [2], the “Fine particle fraction (mass entering the impactor)” value is “no detectable mass entered the impactor”.
